Broadly, the IC50 is the concentration needed to halve the response being measured. Low readings indicate higher potency, high ones lower potency.

The assay concerns the target T1, human TRPV4 (Homo sapiens, UniProt Q9HBA0).
T1 construct: host or cells: tetracycline-inducible Flp-In T-REx 293 cells
The experiment in a line: Hypotonicity-induced Ca2+ influx (Fluo-4, FDSS). The format is cell-based. Here is the method:
Hypotonicity-Induced Ca^2+ Influx
TRPV4 channel activation/opening results in an influx of Ca^2+ (Liedtke, W. et al., 2000 (NPL 1)). The resulting changes in intracellular calcium are monitored using a Ca^2+ sensitive fluorescent dye Fluo-4 (Invitrogen). Dye loaded cells are treated with the test compounds for 5 minutes prior to the addition of a hypotonic solution and the inhibition of the hypotonicity-induced activation is recorded.
Forty microL of tetracycline-inducible Flp-In T-REx 293 cells (Invitrogen) stably expressing human TRPV4 are seeded onto the poly-D-lysine coated 384-well plate (Corning) at a density of 10,000 cells per well. The following day, TRPV4 expression is induced by adding 0.5 microg/mL tetracycline for 20-24 hours. On the day of the experiment, the media is removed and replaced with 40 microL of dye loading buffer [1 microM Fluo-4 AM (Invitrogen), 0.01% Pluronic F-127, and 20 mM HEPES in Hanks' balanced salt solutions (HBSS; Invitrogen)] and then the cells are incubated for 60 minutes at 25° C. Dye is then removed and replaced with 20 microL of assay buffer (20 mM HEPES in HBSS). Five minutes prior to the fluorescence measurement, 10 microL of test compound is added to the cells. Using the FDSS instrument (Hamamatsu Photonics), 30 microL of hypotonic solution (90 mM D-mannitol and 1.26 mM CaCl2 in ultrapure water) is added 30 seconds after the start of measurement. The calcium flux signal is recorded for a total of 4.5 minutes.

Where [1] appears, read: Flp-In T-REx 293 cells expressing human TRPV4, examples listed under heading 'Human IC50<50 nM'.
Setting [2] is: Flp-In T-REx 293 cells stably expressing human TRPV4, compounds listed by potency bin (<10 nM Tables 96-1/96-2, <3 nM Table 97).

T1 sequence (Q9HBA0 whole entry): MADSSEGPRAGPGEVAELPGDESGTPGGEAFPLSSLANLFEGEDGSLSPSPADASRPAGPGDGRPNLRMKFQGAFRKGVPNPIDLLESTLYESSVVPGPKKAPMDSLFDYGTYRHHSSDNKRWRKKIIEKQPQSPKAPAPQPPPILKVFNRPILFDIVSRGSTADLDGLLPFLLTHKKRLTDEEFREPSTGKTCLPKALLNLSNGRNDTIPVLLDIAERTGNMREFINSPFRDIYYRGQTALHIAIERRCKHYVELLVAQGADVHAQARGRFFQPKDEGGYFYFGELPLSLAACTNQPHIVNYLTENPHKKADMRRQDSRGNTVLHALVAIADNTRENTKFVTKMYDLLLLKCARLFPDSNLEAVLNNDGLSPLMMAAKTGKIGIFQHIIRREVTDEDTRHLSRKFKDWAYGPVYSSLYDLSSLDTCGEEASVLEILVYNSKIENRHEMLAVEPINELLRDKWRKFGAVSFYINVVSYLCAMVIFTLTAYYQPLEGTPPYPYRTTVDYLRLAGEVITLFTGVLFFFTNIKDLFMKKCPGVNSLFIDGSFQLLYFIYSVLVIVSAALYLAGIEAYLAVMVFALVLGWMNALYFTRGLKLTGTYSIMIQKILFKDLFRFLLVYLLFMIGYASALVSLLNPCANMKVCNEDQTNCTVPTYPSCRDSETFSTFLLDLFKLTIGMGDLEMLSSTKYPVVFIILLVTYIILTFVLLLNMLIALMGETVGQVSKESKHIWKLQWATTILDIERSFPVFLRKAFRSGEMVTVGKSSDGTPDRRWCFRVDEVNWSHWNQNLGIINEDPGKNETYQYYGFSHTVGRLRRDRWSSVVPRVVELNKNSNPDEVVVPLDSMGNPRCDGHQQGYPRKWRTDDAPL

The compound `O=C(Cc1cccc(C(F)(F)F)c1F)N1CCCc2nc(C3(c4ccccc4)CC3)[nH]c(=O)c2C1` [17-11] registered an IC50 under setting [1] of less than 0.05 µM and an IC50 under setting [2] of less than 0.01 µM.

In the case of `O=C([C@H](O)c1cccc(C(F)(F)F)c1)N1CCCc2nc(C3(c4cccc(Cl)c4)CC3)[nH]c(=O)c2C1` [17-12], the half-maximal inhibitory concentration (IC50) by setting is: under setting [1], less than 0.05 µM; under setting [2], less than 0.01 µM.

In the case of `O=C(C(O)c1cccc(OCc2ccccc2)c1)N1CCCc2nc(C3(c4cccc(Cl)c4)CC3)[nH]c(=O)c2C1` (stereo not shown) [17-13], the IC50 is, setting by setting: under setting [1], less than 0.05 µM; under setting [2], less than 0.01 µM.

For `O=C(C(O)c1cccc(-c2cccc(C(F)(F)F)c2)c1)N1CCCc2nc(C3(c4cccc(F)c4)CC3)[nH]c(=O)c2C1` (stereo not shown) [17-14], the IC50 reads like this: under setting [1], less than 0.05 µM; under setting [2], less than 0.01 µM.

`O=C(C(O)c1cccc(-c2cccc(OC(F)(F)F)c2)c1)N1CCCc2nc(C3(c4cccc(F)c4)CC3)[nH]c(=O)c2C1` (stereo not shown) [17-15]: the IC50 under setting [1] is less than 0.05 µM and the IC50 under setting [2] was less than 0.01 µM.

Turning to `O=C(C(O)c1cccc(-c2cccc(C(F)(F)F)c2)c1)N1CCCc2nc(C3(c4cccc(Cl)c4)CC3)[nH]c(=O)c2C1` (stereo not shown) [17-16], the half-inhibitory concentration (IC50) was less than 0.05 µM under setting [1] and less than 0.01 µM under setting [2].

In turn, `O=C(C(O)c1cccc(-c2ccc(Cl)cc2)c1)N1CCCc2nc(C3(c4cccc(Cl)c4)CC3)[nH]c(=O)c2C1` (stereo not shown) [17-17] registered an IC50 under setting [1] of less than 0.05 µM and an IC50 under setting [2] of less than 0.01 µM.

Take `CC(C)(C)c1cccc(C(O)C(=O)N2CCCc3nc(C4(c5cccc(Cl)c5)CC4)[nH]c(=O)c3C2)c1` (stereo not shown) [17-18]: the IC50 is less than 0.05 µM under setting [1] and less than 0.01 µM under setting [2].

Turning to `O=C(C(O)c1cccc(-c2cnc3ccccc3c2)c1)N1CCCc2nc(C3(c4cccc(Cl)c4)CC3)[nH]c(=O)c2C1` (stereo not shown) [17-19], the IC50 was less than 0.05 µM under setting [1] and less than 0.01 µM under setting [2].

In the case of `O=C(C(O)c1cccc(C(F)(F)F)c1F)N1CCCc2nc(C3(c4ccccc4)CC3)[nH]c(=O)c2C1` (stereo not shown) [17-20], the IC50 is, setting by setting: under setting [1], less than 0.05 µM; under setting [2], less than 0.01 µM.

For the compound `CC(C)(C)c1cccc(C(O)C(=O)N2CCCc3nc(C4(c5cccc(F)c5)CC4)[nH]c(=O)c3C2)c1` (stereo not shown) [17-21], the IC50 is, setting by setting: under setting [1], less than 0.05 µM; under setting [2], less than 0.01 µM.

With `O=C(C(O)c1ccccc1Oc1ccccc1)N1CCCc2nc(C3(c4cccc(Cl)c4)CC3)[nH]c(=O)c2C1` (stereo not shown) [17-22], the IC50 by setting is: under setting [1], less than 0.05 µM; under setting [2], less than 0.01 µM.

Consider `O=C(C(O)c1cccc(-c2cccc(OC(F)(F)F)c2)c1)N1CCCc2nc(C3(c4cccc(Cl)c4)CC3)[nH]c(=O)c2C1` (stereo not shown) [17-23], for which the IC50 is less than 0.05 µM under setting [1] and less than 0.01 µM under setting [2].

In the case of `O=C(C(O)c1cccc(C2CC2)c1)N1CCCc2nc(C3(c4cccc(Cl)c4)CC3)[nH]c(=O)c2C1` (stereo not shown) [17-24], the IC50 is less than 0.05 µM under setting [1] and less than 0.01 µM under setting [2].

Consider `O=C([C@H](O)c1cccc(C(F)(F)F)c1)N1CCCc2nc(C3(c4cccc(C5CCCCC5)c4)CC3)[nH]c(=O)c2C1` [17-25], for which the IC50 is less than 0.05 µM under setting [1] and less than 0.01 µM under setting [2].

As to `O=C(Cc1cccc(SC(F)(F)F)c1)N1CCCc2nc(C3(c4ccccc4)CC3)[nH]c(=O)c2C1` [17-26], the IC50 is less than 0.05 µM under setting [1] and less than 0.01 µM under setting [2].

Take `O=C(C(O)c1cccc(S(F)(F)(F)(F)F)c1)N1CCCc2nc(C3(c4cccc(Cl)c4)CC3)[nH]c(=O)c2C1` (stereo not shown) [17-27]: the IC50 was less than 0.05 µM under setting [1] and less than 0.01 µM under setting [2].

On to `O=C(C(O)c1cccc(SC(F)(F)F)c1)N1CCCc2nc(C3(c4cccc(Cl)c4)CC3)[nH]c(=O)c2C1` (stereo not shown) [17-28], for which the IC50 is, setting by setting: under setting [1], less than 0.05 µM; under setting [2], less than 0.01 µM.

Take `O=C([C@H](O)c1cccc(Cl)c1)N1CCCc2nc(C3(c4cccc(Cl)c4)CC3)[nH]c(=O)c2C1` [17-29]: the IC50 was less than 0.05 µM under setting [1] and less than 0.01 µM under setting [2].

Take `O=C(C(O)c1cccc(SC(F)(F)F)c1)N1CCCc2nc(C3(c4cccc(F)c4)CC3)[nH]c(=O)c2C1` (stereo not shown) [17-30]: the half-inhibitory concentration (IC50) reads like this: under setting [1], less than 0.05 µM; under setting [2], less than 0.01 µM.

Values taken from patent publication US12673946B2, “Pyrimidin-4(3H)-one derivatives as TRPV4 antagonists” (RaQualia Pharma Inc., priority 2020, dated 2026).
